Data on twelve compounds can be found in PubChem BioAssay (NCI).

Among the test systems are HOP-62 NSCLC; OVCAR-3 ovarian; RXF 393 renal; SN12C renal; UACC-257 melanoma; ACHN renal; K-562 leukemia; UO-31 renal; RPMI-8226 leukemia.
What all share (assay): NCI tumour cell line growth inhibition, 48 h

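Assay format: 96-well plates, 48-hour exposure. At the GI50, growth is halved. The concentration for full growth arrest is given as TGI.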 A value given as a limit tells only on which side of the number the result lay.

On to `CCSc1nnc(-c2ccc3ccccc3c2O)n1-c1ccccc1`, for which the GI50 in the assay with HOP-62 NSCLC was 21.5 µM; in the assay on OVCAR-3 ovarian, over 100 µM; with RXF 393 renal, over 100 µM; in the assay with SN12C renal, over 100 µM; in the assay with UACC-257 melanoma, over 100 µM. The TGI in the assay with HOP-62 NSCLC, with OVCAR-3 ovarian, with RXF 393 renal, with SN12C renal and with UACC-257 melanoma was over 100 µM throughout.

In the case of `Cc1ccc(Nn2c(SCC(=O)Nc3nc(-c4ccccc4)cs3)nc(C)c2C)cc1`, the GI50 in the assay with ACHN renal was 4.06 µM; with HOP-62 NSCLC it was 18.4 µM; in the assay on K-562 leukemia it was 3.62 µM; in the assay with OVCAR-3 ovarian it was 8.24 µM; with SN12C renal, 3.2 µM; in the assay on UACC-257 melanoma, 2.12 µM. The GI50 in the assay with UO-31 renal was 2.89 µM. For the same compound, the TGI with ACHN renal is 62.9 µM; in the assay on HOP-62 NSCLC, over 100 µM; in the assay with K-562 leukemia, over 100 µM; with OVCAR-3 ovarian it was over 100 µM; with SN12C renal, 14.2 µM; in the assay on UACC-257 melanoma, 9.29 µM. This compound showed a TGI in the assay with UO-31 renal of over 100 µM.

On to `[N-]=[N+]=Nc1nnc(CCCCc2nnc(N=[N+]=[N-])o2)o1`, for which the TGI with ACHN renal, in the assay with HOP-62 NSCLC, with K-562 leukemia, with OVCAR-3 ovarian, in the assay on RXF 393 renal and in the assay on SN12C renal was over 100 µM each time. The TGI in the assay on UACC-257 melanoma and in the assay on UO-31 renal was over 100 µM in each case.

Consider `Cc1cccc(/C=N/N=C(\N)NO)n1`, for which the TGI with ACHN renal, in the assay with HOP-62 NSCLC, in the assay with K-562 leukemia, in the assay with OVCAR-3 ovarian, in the assay on RXF 393 renal and in the assay with SN12C renal was over 100 µM throughout. This compound also returned a TGI in the assay on UACC-257 melanoma of over 100 µM.

Turning to `CCOC(=O)C1=C(Nc2cccc3ccccc23)OCC1=O`, the TGI with ACHN renal, in the assay with HOP-62 NSCLC, in the assay with K-562 leukemia, in the assay on OVCAR-3 ovarian, in the assay with RPMI-8226 leukemia and with SN12C renal was over 100 µM each time. Also, the TGI in the assay on UACC-257 melanoma and in the assay on UO-31 renal was over 100 µM throughout.

For the compound `O=C(/C=C/c1ccco1)N1CCN(Cc2ccccc2)CC1`, the TGI with ACHN renal, with HOP-62 NSCLC, in the assay on OVCAR-3 ovarian, in the assay on RPMI-8226 leukemia, with SN12C renal and with UACC-257 melanoma was over 100 µM throughout. In addition, in the assay with UO-31 renal, the TGI is over 100 µM.

Consider `NC(=S)N/N=C1/C(=O)N(c2ccccc2)C(=O)C1C(=O)Nc1ccccc1` (centres undefined), for which the TGI in the assay on ACHN renal, in the assay with HOP-62 NSCLC, in the assay with OVCAR-3 ovarian, with RXF 393 renal, in the assay on SN12C renal and in the assay on UACC-257 melanoma was over 100 µM each time. Further, the TGI with UO-31 renal is over 100 µM.

In the case of `CC(=O)Nc1ccc(S(=O)(=O)N/N=C(\C)CN2C(=O)c3ccccc3C2=O)cc1`, the TGI with ACHN renal, in the assay on HOP-62 NSCLC, with K-562 leukemia, in the assay with OVCAR-3 ovarian, with RPMI-8226 leukemia and with SN12C renal was over 100 µM in each case. Further, the TGI in the assay on UACC-257 melanoma and in the assay on UO-31 renal was over 100 µM each time.

With `O=C(Cc1ccccc1)N/N=C(/c1nc2ccc([N+](=O)[O-])cc2[nH]c1=O)C(O)c1ccco1` (centres undefined), the TGI in the assay with ACHN renal, in the assay on HOP-62 NSCLC, in the assay on K-562 leukemia, with RPMI-8226 leukemia, with SN12C renal and in the assay with UACC-257 melanoma was over 100 µM in each case. In the assay on UO-31 renal, the TGI is over 100 µM.

Consider `NC(CCSCCF)C(=O)O` (centres undefined), for which the TGI with ACHN renal, with HOP-62 NSCLC, with K-562 leukemia, with OVCAR-3 ovarian, in the assay with RPMI-8226 leukemia and with SN12C renal was over 100 µM throughout. This compound also returned a TGI with UO-31 renal of over 100 µM.

As to `CC(C)(C)c1cc(C#N)c2c(c1)C(=O)OC2(c1ccccc1)c1ccccc1C#N` (centres undefined), the TGI in the assay on ACHN renal, in the assay on HOP-62 NSCLC, with K-562 leukemia, in the assay on OVCAR-3 ovarian, with RXF 393 renal and in the assay on SN12C renal was over 100 µM in each case. The TGI in the assay on UACC-257 melanoma and in the assay with UO-31 renal was over 100 µM throughout.

`CCOc1ccc2c(c1)[n+]([O-])c(-c1ccc([N+](=O)[O-])cc1)c(N)[n+]2[O-]`: the TGI in the assay with ACHN renal, in the assay on HOP-62 NSCLC, in the assay with K-562 leukemia, in the assay with OVCAR-3 ovarian, with RXF 393 renal and with SN12C renal was over 100 µM each time. The TGI in the assay on UACC-257 melanoma and with UO-31 renal was over 100 µM each time.
